Reference: PubChem BioAssay AID248 (DTP/NCI, 2004)
Toxic doses and inconclusive results are not listed.

System: L1210 leukemia ip in BDF1 mice, survival T/C
Assay: NCI In Vivo Anticancer Drug Screen. Data for tumor model L1210 Leukemia (intraperitoneal) in B6D2F1 (BDF1) mice
Details: higher = longer survival
How it was run: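 Each compound was tested against a transplantable tumor grown in mice. The endpoint was survival, with treated animals benchmarked against vehicle controls as a simple ratio.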

[1] = endpoint: mean survival time, dose: 100.0 mg/kg/injection, schedule: Q01DX009 (ip), vehicle: Klucel (hydroxypropylcellulose) (HPC)
[2] = endpoint: mean survival time, dose: 200.0 mg/kg/injection, schedule: Q01DX009 (ip), vehicle: Klucel (hydroxypropylcellulose) (HPC)
[3] = endpoint: mean survival time, dose: 400.0 mg/kg/injection, schedule: Q01DX009 (ip), vehicle: Klucel (hydroxypropylcellulose) (HPC)
[4] = endpoint: mean survival time, dose: 12.5 mg/kg/injection, schedule: Q01DX009 (ip), vehicle: saline
[5] = endpoint: mean survival time, dose: 50.0 mg/kg/injection, schedule: Q04DX003 (ip), vehicle: saline
[6] = endpoint: mean survival time, dose: 100.0 mg/kg/injection, schedule: Q01DX009 (ip), vehicle: saline
[7] = endpoint: mean survival time, dose: 200.0 mg/kg/injection, schedule: Q01DX009 (ip), vehicle: saline
[8] = endpoint: mean survival time, dose: 100.0 mg/kg/injection, schedule: Q01DX001 (ip), vehicle: saline
[9] = endpoint: mean survival time, dose: 200.0 mg/kg/injection, schedule: Q01DX001 (ip), vehicle: saline
[10] = endpoint: mean survival time, dose: 400.0 mg/kg/injection, schedule: Q01DX001 (ip), vehicle: saline
[11] = endpoint: mean survival time, dose: 100.0 mg/kg/injection, schedule: Q01DX001 (ip), vehicle: carboxymethylcellulose (CMC)
[12] = endpoint: mean survival time, dose: 200.0 mg/kg/injection, schedule: Q01DX001 (ip), vehicle: carboxymethylcellulose (CMC)
[13] = endpoint: mean survival time, dose: 100.0 mg/kg/injection, schedule: Q01DX001 (ip), vehicle: Klucel (hydroxypropylcellulose) (HPC)
[14] = endpoint: mean survival time, dose: 100.0 mg/kg/injection, schedule: Q04DX003 (ip), vehicle: saline
[15] = endpoint: mean survival time, dose: 200.0 mg/kg/injection, schedule: Q01DX001 (ip), vehicle: Klucel (hydroxypropylcellulose) (HPC)
[16] = endpoint: mean survival time, dose: 200.0 mg/kg/injection, schedule: Q04DX003 (ip), vehicle: saline
[17] = endpoint: mean survival time, dose: 100.0 mg/kg/injection, schedule: Q04DX003 (ip), vehicle: Klucel (hydroxypropylcellulose) (HPC)
[18] = endpoint: mean survival time, dose: 200.0 mg/kg/injection, schedule: Q04DX003 (ip), vehicle: Klucel (hydroxypropylcellulose) (HPC)
[19] = endpoint: mean survival time, dose: 400.0 mg/kg/injection, schedule: Q04DX003 (ip), vehicle: Klucel (hydroxypropylcellulose) (HPC)

Nc1ccccc1SC(CC(=O)c1ccccc1)c1ccc([N+](=O)[O-])cc1 (stereo not drawn)
T/C (endpoint: mean survival time, dose: 100.0 mg/kg/injection, schedule: Q01DX005 (ip), vehicle: Klucel (hydroxypropylcellulose) (HPC)): 101 % of control | T/C [1]: 97 % of control | T/C [2]: 91 % of control | T/C (endpoint: mean survival time, dose: 400.0 mg/kg/injection, schedule: Q01DX005 (ip), vehicle: Klucel (hydroxypropylcellulose) (HPC)): 86 % of control | T/C [3]: 97 % of control

COC1OCC(Cl)C(O)C1OS(C)(=O)=O (stereo not drawn)
T/C (endpoint: mean survival time, dose: 100.0 mg/kg/injection, schedule: Q04DX002 (ip), vehicle: saline with Tween-80): 96 % of control | T/C (endpoint: mean survival time, dose: 200.0 mg/kg/injection, schedule: Q04DX002 (ip), vehicle: saline with Tween-80): 100 % of control | T/C (endpoint: mean survival time, dose: 400.0 mg/kg/injection, schedule: Q04DX002 (ip), vehicle: saline with Tween-80): 104 % of control

C[N+](C)(C)N=C1CCC2(CC1)c1ccccc1-c1ccccc12
T/C [4]: 95 % of control | T/C (endpoint: mean survival time, dose: 12.5 mg/kg/injection, schedule: Q04DX003 (ip), vehicle: saline): 103 % of control | T/C (endpoint: mean survival time, dose: 25.0 mg/kg/injection, schedule: Q01DX009 (ip), vehicle: saline): 93 % of control | T/C (endpoint: mean survival time, dose: 25.0 mg/kg/injection, schedule: Q04DX003 (ip), vehicle: saline): 100 % of control | T/C [5]: 95 % of control

CSC1=NCCN1
T/C [6]: 104 % of control | T/C [7]: 100 % of control | T/C (endpoint: mean survival time, dose: 400.0 mg/kg/injection, schedule: Q01DX009 (ip), vehicle: saline): 104 % of control

Cc1cc(C)c(C(=O)/C=C(\N)C(=O)c2c(C)cc(C)cc2C)c(C)c1
T/C (endpoint: mean survival time, dose: 50.0 mg/kg/injection, schedule: Q04DX003 (ip), vehicle: carboxymethylcellulose (CMC)): 110 % of control | T/C (endpoint: mean survival time, dose: 100.0 mg/kg/injection, schedule: Q04DX003 (ip), vehicle: carboxymethylcellulose (CMC)): 98 % of control | T/C (endpoint: mean survival time, dose: 200.0 mg/kg/injection, schedule: Q04DX003 (ip), vehicle: carboxymethylcellulose (CMC)): 104 % of control

CCN(C(=O)N(CCCl)N=O)C1CCCCC1
T/C (endpoint: mean survival time, dose: 75.0 mg/kg/injection, schedule: Q01DX001 (ip), vehicle: saline): 97 % of control

C[CH2][Sn](/[CH]=C/C=C/OC)([CH2]C)[CH2]C
T/C (endpoint: mean survival time, dose: 0.19 mg/kg/injection, schedule: Q01DX009 (ip), vehicle: saline): 99 % of control | T/C (endpoint: mean survival time, dose: 0.39 mg/kg/injection, schedule: Q01DX009 (ip), vehicle: saline): 94 % of control | T/C (endpoint: mean survival time, dose: 0.78 mg/kg/injection, schedule: Q01DX009 (ip), vehicle: saline): 99 % of control | T/C (endpoint: mean survival time, dose: 6.25 mg/kg/injection, schedule: Q01DX009 (ip), vehicle: saline): 94 % of control | T/C [4]: 97 % of control

CC(NC(=O)C(NC(=O)c1cnc2ccccc2n1)C(C)C)C(=O)O (stereo not drawn)
T/C [8]: 94 % of control | T/C (endpoint: mean survival time, dose: 100.0 mg/kg/injection, schedule: Q04DX003 (ip), vehicle: acetone): 99 % of control | T/C [9]: 104 % of control | T/C (endpoint: mean survival time, dose: 200.0 mg/kg/injection, schedule: Q04DX003 (ip), vehicle: acetone): 103 % of control | T/C [10]: 96 % of control | T/C (endpoint: mean survival time, dose: 400.0 mg/kg/injection, schedule: Q04DX003 (ip), vehicle: acetone): 99 % of control

CC(C)c1cc(O)ccc1O
T/C (endpoint: mean survival time, dose: 100.0 mg/kg/injection, schedule: Q01DX001 (ip), vehicle: other): 102 % of control | T/C (endpoint: mean survival time, dose: 200.0 mg/kg/injection, schedule: Q01DX001 (ip), vehicle: other): 94 % of control

COC(=O)OCC1OC(OC(C)=O)C2OC(=O)OC12 (stereo not drawn)
T/C [8]: 97 % of control | T/C [9]: 97 % of control | T/C [10]: 97 % of control

CC(C)CCNC(=O)CS(=O)(=O)c1ccc(N)cc1
T/C (endpoint: mean survival time, dose: 100.0 mg/kg/injection, schedule: Q04DX003 (ip), vehicle: saline with Tween-80): 98 % of control | T/C (endpoint: mean survival time, dose: 200.0 mg/kg/injection, schedule: Q04DX003 (ip), vehicle: saline with Tween-80): 98 % of control | T/C (endpoint: mean survival time, dose: 400.0 mg/kg/injection, schedule: Q04DX003 (ip), vehicle: saline with Tween-80): 96 % of control

CC(C)CN(C)/N=N/c1nc[nH]c1C(N)=O
T/C (endpoint: mean survival time, dose: 33.0 mg/kg/injection, schedule: Q01DX009 (ip), vehicle: carboxymethylcellulose (CMC)): 114 % of control | T/C (endpoint: mean survival time, dose: 37.0 mg/kg/injection, schedule: Q01DX Z (ip), vehicle: carboxymethylcellulose (CMC)): 170 % of control | T/C (endpoint: mean survival time, dose: 50.0 mg/kg/injection, schedule: Q01DX Z (ip), vehicle: carboxymethylcellulose (CMC)): 156 % of control | T/C (endpoint: mean survival time, dose: 75.0 mg/kg/injection, schedule: Q01DX Z (ip), vehicle: carboxymethylcellulose (CMC)): 167 % of control | T/C (endpoint: mean survival time, dose: 80.0 mg/kg/injection, schedule: Q01DX015 (ip), vehicle: carboxymethylcellulose (CMC)): 109 % of control | T/C [11]: 116 % of control | T/C (endpoint: mean survival time, dose: 120.0 mg/kg/injection, schedule: Q01DX009 (ip), vehicle: carboxymethylcellulose (CMC)): 86 % of control | T/C (endpoint: mean survival time, dose: 134.0 mg/kg/injection, schedule: Q01DX001 (ip), vehicle: carboxymethylcellulose (CMC)): 106 % of control | T/C (endpoint: mean survival time, dose: 134.0 mg/kg/injection, schedule: Q01DX015 (ip), vehicle: carboxymethylcellulose (CMC)): 109 % of control | T/C (endpoint: mean survival time, dose: 178.0 mg/kg/injection, schedule: Q01DX001 (ip), vehicle: carboxymethylcellulose (CMC)): 106 % of control | T/C [12]: 122 % of control | T/C (endpoint: mean survival time, dose: 267.0 mg/kg/injection, schedule: Q01DX001 (ip), vehicle: carboxymethylcellulose (CMC)): 110 % of control | T/C (endpoint: mean survival time, dose: 400.0 mg/kg/injection, schedule: Q01DX001 (ip), vehicle: carboxymethylcellulose (CMC)): 151 % of control | T/C (endpoint: median survival time, dose: 12.5 mg/kg/injection, schedule: Q01DX009 (ip), vehicle: steriod suspending solution): 122 % of control | T/C (endpoint: median survival time, dose: 25.0 mg/kg/injection, schedule: Q01DX009 (ip), vehicle: steriod suspending solution): 111 % of control | T/C (endpoint: median survival time, dose: 50.0 mg/kg/injection, schedule: Q01DX011 (ip), vehicle: steriod suspending solution): 175 % of control | T/C (endpoint: median survival time, dose: 100.0 mg/kg/injection, schedule: Q01DX009 (ip), vehicle: steriod suspending solution): 155 % of control | T/C (endpoint: median survival time, dose: 100.0 mg/kg/injection, schedule: Q01DX011 (ip), vehicle: steriod suspending solution): 168 % of control

CCOC(=O)c1cc(-c2ccccc2)c(-c2ccccc2)c(-c2ccccc2)c1-c1ccccc1
T/C (endpoint: mean survival time, dose: 50.0 mg/kg/injection, schedule: Q01DX001 (ip), vehicle: carboxymethylcellulose (CMC)): 97 % of control | T/C [11]: 100 % of control | T/C [12]: 97 % of control

CCC1(C)C(=O)N(Br)C(=O)N1Br (stereo not drawn)
T/C (endpoint: mean survival time, dose: 50.0 mg/kg/injection, schedule: Q01DX009 (ip), vehicle: saline): 91 % of control | T/C [5]: 100 % of control | T/C [13]: 106 % of control | T/C [6]: 95 % of control | T/C [14]: 105 % of control | T/C [15]: 102 % of control | T/C [7]: 95 % of control | T/C [16]: 97 % of control

CC1C(C)(C)P(N)(=O)C1(C)C (stereo not drawn)
T/C [14]: 100 % of control | T/C [16]: 103 % of control | T/C (endpoint: mean survival time, dose: 400.0 mg/kg/injection, schedule: Q04DX003 (ip), vehicle: saline): 97 % of control

CCCCCNC(=O)CCC
T/C [1]: 108 % of control | T/C [17]: 96 % of control | T/C [2]: 108 % of control | T/C [18]: 107 % of control | T/C [3]: 106 % of control | T/C [19]: 95 % of control

CCOc1cccc(Cc2c[nH]c(=O)n(C)c2=O)c1
T/C [17]: 93 % of control | T/C [18]: 97 % of control | T/C [19]: 98 % of control

Clc1ccccc1/C=C1\c2ccc(Br)cc2-c2cccc[n+]21
T/C (endpoint: mean survival time, dose: 75.0 mg/kg/injection, schedule: Q01DX001 (ip), vehicle: other): 87 % of control

CCC(C)(C)c1cccc2ccccc12
T/C [1]: 96 % of control | T/C [17]: 102 % of control | T/C [2]: 100 % of control | T/C [18]: 106 % of control | T/C [3]: 86 % of control | T/C [19]: 101 % of control

O=C1CC(O)(c2ccccc2)C2(c3ccccc3)OC2O1 (stereo not drawn)
T/C [13]: 101 % of control | T/C [1]: 96 % of control | T/C [15]: 101 % of control | T/C [2]: 93 % of control | T/C (endpoint: mean survival time, dose: 400.0 mg/kg/injection, schedule: Q01DX001 (ip), vehicle: Klucel (hydroxypropylcellulose) (HPC)): 101 % of control | T/C [3]: 95 % of control
